Tested on: IL-10 production by OvA-stimulated splenocytes
Assay: OvA-stimulated production of IL-10 by splenocytes of OvA-immunized mice
[1] = OvA/Alum, 0.1 μg/kg i/p, OvA 10 μg/ml
[2] = OvA/Alum, 0.1 μg/kg i/p, OvA 25 μg/ml
[3] = OvA/Alum, 0.1 μg/kg i/p, OvA 50 μg/ml
[4] = OvA/Alum, 0.1 μg/kg i/p, OvA 100 μg/ml
[5] = OvA/Alum, 1.0 μg/kg i/p, OvA 10 μg/ml
[6] = OvA/Alum, 1.0 μg/kg i/p, OvA 25 μg/ml
[7] = OvA/Alum, 1.0 μg/kg i/p, OvA 50 μg/ml
[8] = OvA/Alum, 1.0 μg/kg i/p, OvA 100 μg/ml
[9] = OvA/FA, 0.1 μg/kg i/p, OvA 10 μg/ml
[10] = OvA/FA, 0.1 μg/kg i/p, OvA 25 μg/ml
[11] = OvA/FA, 0.1 μg/kg i/p, OvA 50 μg/ml
[12] = OvA/FA, 0.1 μg/kg i/p, OvA 100 μg/ml
[13] = OvA/FA, 1.0 μg/kg i/p, OvA 10 μg/ml
[14] = OvA/FA, 1.0 μg/kg i/p, OvA 25 μg/ml
[15] = OvA/FA, 1.0 μg/kg i/p, OvA 50 μg/ml
[16] = OvA/FA, 1.0 μg/kg i/p, OvA 100 μg/ml

Description: The OvA was administered subcutaneously to the crest in a volume of 200 μl. Mice were immunized on day 1 with OvA in complete Freund's adjuvant (CFA; Sigma) and on day 15 with the antigen in incomplete Freund's adjuvant (IFA; Sigma). The immune response was analyzed on day 29. Mice were also immunized with 10 μg/mouse of OvA using Alum as an adjuvant.
Thymuses and spleens from mice of each treatment group were pooled, and then minced with scissors. The minced tissues were suspended in sterile PBS to form cell suspensions, filtered through a double gauze layer and centrifuged. Cells were washed twice with PBS, re-suspended in RPMI-1640 (Sigma) with 2.0 mM of L-glutamine, 50 μM of mercaptoethanol, and 10 μg/ml of gentamycin (complete medium); and cell counts were made. (The splenocyte suspension was washed with a 0.86% solution of NH4Cl to pre-lyse erthrocytes.)
Assessment of Mitogen- and Antigen-Induced Production of Cytokines: Thymic cells (1×10^6/well) in complete medium with 2% FCS were stimulated with ConA (0, 1, and 2 μg/ml). Splenocytes (1×10^6/well) in complete medium with 5% FCS were stimulated with ConA (0, 1, and 5 μg/ml) and with OvA (0-100 μg/ml). […] Supernatants from OvA-stimulated cultures were collected after 72 hours. Supernatants from both cultures were frozen, and kept at 20° C. Concentrations of IL-2, IL-4, IL-10, IL-12R40 and IFNγ in the supernatants were determined by solid-phase EIA with EIA Expansion Kits, available from BD Biosciences (formerly Pharmingen), in accordance with the manufacturer's instructions.

## N[C@H](CCC(=O)N[C@@H](Cc1c[nH]c2ccccc12)C(=O)O)C(=O)O [SCV-07, γ-D-glutamyl-L-tryptophan]
[1]
  Production of IL-10 by splenocytes: 1762.5 pg/mL
  Production of IL-10 by splenocytes, % (% of control): 80.9%
[2]
  Production of IL-10 by splenocytes: 1946.1 pg/mL
  Production of IL-10 by splenocytes, % (% of control): 89.4%
[3]
  Production of IL-10 by splenocytes: 1851.3 pg/mL
  Production of IL-10 by splenocytes, % (% of control): 85.0%
[4]
  Production of IL-10 by splenocytes: 2189.5 pg/mL
  Production of IL-10 by splenocytes, % (% of control): 100.5%
OvA/Alum, 0.1 μg/kg per os, OvA 0 μg/ml
  Production of IL-10 by splenocytes: 1351.1 pg/mL
OvA/Alum, 0.1 μg/kg per os, OvA 10 μg/ml
  Production of IL-10 by splenocytes: 1587.9 pg/mL
OvA/Alum, 0.1 μg/kg per os, OvA 25 μg/ml
  Production of IL-10 by splenocytes: 1419.5 pg/mL
OvA/Alum, 0.1 μg/kg per os, OvA 50 μg/ml
  Production of IL-10 by splenocytes: 1783.6 pg/mL
OvA/Alum, 0.1 μg/kg per os, OvA 100 μg/ml
  Production of IL-10 by splenocytes: 1741.5 pg/mL
OvA/Alum, 1.0 μg/kg i/p, OvA 0 μg/ml
  Production of IL-10 by splenocytes: 2035.7 pg/mL
[5]
  Production of IL-10 by splenocytes: 1758.9 pg/mL
  Production of IL-10 by splenocytes, % (% of control): 86.4%
[6]
  Production of IL-10 by splenocytes: 1829.8 pg/mL
  Production of IL-10 by splenocytes, % (% of control): 89.9%
[7]
  Production of IL-10 by splenocytes: 1584.7 pg/mL
  Production of IL-10 by splenocytes, % (% of control): 77.8%
[8]
  Production of IL-10 by splenocytes: 1840.7 pg/mL
  Production of IL-10 by splenocytes, % (% of control): 90.4%
OvA/Alum, 1.0 μg/kg per os, OvA 0 μg/ml
  Production of IL-10 by splenocytes: 1741.5 pg/mL
OvA/Alum, 1.0 μg/kg per os, OvA 10 μg/ml
  Production of IL-10 by splenocytes: 2220.9 pg/mL
OvA/Alum, 1.0 μg/kg per os, OvA 25 μg/ml
  Production of IL-10 by splenocytes: 1957.2 pg/mL
OvA/Alum, 1.0 μg/kg per os, OvA 50 μg/ml
  Production of IL-10 by splenocytes: 1920.4 pg/mL
OvA/Alum, 1.0 μg/kg per os, OvA 100 μg/ml
  Production of IL-10 by splenocytes: 1898.4 pg/mL
OvA/Alum, 10.0 μg/kg per os, OvA 0 μg/ml
  Production of IL-10 by splenocytes: 816.4 pg/mL
OvA/Alum, 10.0 μg/kg per os, OvA 10 μg/ml
  Production of IL-10 by splenocytes: 1127.5 pg/mL
OvA/Alum, 10.0 μg/kg per os, OvA 25 μg/ml
  Production of IL-10 by splenocytes: 1272.5 pg/mL
OvA/Alum, 10.0 μg/kg per os, OvA 50 μg/ml
  Production of IL-10 by splenocytes: 1608.4 pg/mL
OvA/Alum, 10.0 μg/kg per os, OvA 100 μg/ml
  Production of IL-10 by splenocytes: 1780.1 pg/mL
OvA/FA, 0.1 μg/kg i/p, OvA 0 μg/ml
  Production of IL-10 by splenocytes: 785.1 pg/mL
[9]
  Production of IL-10 by splenocytes: 989.4 pg/mL
  Production of IL-10 by splenocytes, % (% of control): 126.0%
[10]
  Production of IL-10 by splenocytes: 1234.3 pg/mL
  Production of IL-10 by splenocytes, % (% of control): 157.2%
[11]
  Production of IL-10 by splenocytes: 1194.2 pg/mL
  Production of IL-10 by splenocytes, % (% of control): 152.1%
[12]
  Production of IL-10 by splenocytes: 1502.4 pg/mL
  Production of IL-10 by splenocytes, % (% of control): 191.4%
OvA/FA, 0.1 μg/kg per os, OvA 0 μg/ml
  Production of IL-10 by splenocytes: 702.5 pg/mL
OvA/FA, 0.1 μg/kg per os, OvA 10 μg/ml
  Production of IL-10 by splenocytes: 958.9 pg/mL
OvA/FA, 0.1 μg/kg per os, OvA 25 μg/ml
  Production of IL-10 by splenocytes: 1478.2 pg/mL
OvA/FA, 0.1 μg/kg per os, OvA 50 μg/ml
  Production of IL-10 by splenocytes: 1739.2 pg/mL
OvA/FA, 0.1 μg/kg per os, OvA 100 μg/ml
  Production of IL-10 by splenocytes: 1895.4 pg/mL
OvA/FA, 1.0 μg/kg i/p, OvA 0 μg/ml
  Production of IL-10 by splenocytes: 457.4 pg/mL
[13]
  Production of IL-10 by splenocytes: 813.4 pg/mL
  Production of IL-10 by splenocytes, % (% of control): 177.8%
[14]
  Production of IL-10 by splenocytes: 774.1 pg/mL
  Production of IL-10 by splenocytes, % (% of control): 169.2%
[15]
  Production of IL-10 by splenocytes: 852.4 pg/mL
  Production of IL-10 by splenocytes, % (% of control): 186.4%
[16]
  Production of IL-10 by splenocytes: 963.8 pg/mL
  Production of IL-10 by splenocytes, % (% of control): 210.7%
OvA/FA, 1.0 μg/kg per os, OvA 0 μg/ml
  Production of IL-10 by splenocytes: 407.6 pg/mL
OvA/FA, 1.0 μg/kg per os, OvA 10 μg/ml
  Production of IL-10 by splenocytes: 953.1 pg/mL
OvA/FA, 1.0 μg/kg per os, OvA 25 μg/ml
  Production of IL-10 by splenocytes: 984.1 pg/mL
OvA/FA, 1.0 μg/kg per os, OvA 50 μg/ml
  Production of IL-10 by splenocytes: 1120.7 pg/mL
OvA/FA, 1.0 μg/kg per os, OvA 100 μg/ml
  Production of IL-10 by splenocytes: 1292.2 pg/mL
OvA/FA, 10.0 μg/kg per os, OvA 0 μg/ml
  Production of IL-10 by splenocytes: 627.3 pg/mL
OvA/FA, 10.0 μg/kg per os, OvA 10 μg/ml
  Production of IL-10 by splenocytes: 831.6 pg/mL
OvA/FA, 10.0 μg/kg per os, OvA 25 μg/ml
  Production of IL-10 by splenocytes: 1092.7 pg/mL
OvA/FA, 10.0 μg/kg per os, OvA 50 μg/ml
  Production of IL-10 by splenocytes: 1356.1 pg/mL
OvA/FA, 10.0 μg/kg per os, OvA 100 μg/ml
  Production of IL-10 by splenocytes: 1569.3 pg/mL
